Source: article PMC8466755, “GPCR Pharmacological Profiling of Aaptamine from the Philippine Sponge Stylissa sp. Extends Its Therapeutic Potential for Noncommunicable Diseases” (Molecules, 2021)
pEC50, pIC50: −log10 of the molar value. “Also recorded” adds a separate entry of the source.

Assays:
[1] = target: T1, purified 20S proteasome from human erythrocytes (Homo sapiens, UniProt P28074); assay: 20S proteasome chymotrypsin-like activity assay (Suc-LLVY-AMC); format: biochemical
T1 construct: purified 20S proteasome from human erythrocyte; purchased Enzo Life Sciences; host or cells: human erythrocytes (tissue-purified)
Method: Aaptamine was tested against HCT116 colon cancer cells and cell viability was assessed after 48 h using an MTT (3-(4,5-dimethyl dimethylthiazol-2-yl)-2,5-diphenyltetrazolium bromide) assay. […] The results agreed with the findings of Kobayashi et al. that aaptamine at concentrations of 20–50 µM increased the expression of the cyclin-dependent kinase inhibitor p21, a protein known to act as a negative regulator of cell cycle progression, thus preventing cell proliferation. […] To alternatively explain the activity of aaptamine, we tested the compound for its ability to inhibit the chymotrypsin-like activity of a purified 20S proteasome from human erythrocytes. Proteasome inhibitors are validated anticancer agents. Aaptamine was able to inhibit the enzyme activity by 41% at 50 µM (Figure 2b). […] In our study, aaptamine had similar IC50 values for cancer cell growth inhibition and proteasome inhibition in vitro (~50 µM).
The 20S proteasome assay kit from Enzo Life Sciences (NY, USA) is a fluorogenic, non-radioactive assay designed to measure the chymotrypsin-like protease activity of purified 20S proteasome from human erythrocyte. […] The fluorescence was then measured at an excitation of 360 nm and emission of 460 nm using a SpectraMax M5 plate reader (Molecular Device). The data were recorded every 2 min for 20 min. […]

p21 = tested on: p21; design: method as in doi:10.1016/j.tetlet.2007.01.113; details: cited from earlier work
α-adrenoreceptor = tested on: α-adrenoreceptor; design: method as in PMID 6150989; details: vascular smooth muscle of male albino rabbits, displacement analysis; cited from earlier work
DRD2S = DRD2S (Homo sapiens, UniProt P14416); assay: PathHunter β-arrestin assay, antagonist mode; format: cell-based
Method: (§1) Aaptamine (20 µM) was profiled in gpcrMAX panel biosensor assays (in agonist and antagonist modes) against a panel of 168 GPCRs. The assay was performed by DiscoverX Corporation (Fremont, CA) using PathHunter β -arrestin enzyme fragment complementation (EFC) technology, in a similar way to that described elsewhere. The PathHunter cell lines were taken from freezer stocks according to standard procedures. A total of 20 µL of cells were seeded into white 384-well plates and incubated at 37 °C for the appropriate time prior to testing.
For antagonist determination, PathHunter cells were preincubated with aaptamine followed by the addition of an agonist. In this assay format, the standard agonist was added at an EC80 concentration. To the plate that contained the cells, 5 µL of the 5X sample was added and incubated for 30 min at 37 °C or room temperature. After the incubation period, 5 µL of the 6X EC80 agonist in an assay buffer was added to the cells and incubated for additional 90 or 180 min at 37 °C or room temperature.
Hit validation was performed by subjecting the aaptamine to an agonist, antagonist, and positive allosteric modulation (PAM) secondary screen utilizing thirteen GPCR biosensor assays (Arrestin) against the following targets: ADRA2A, ADRA2C, ADRB2, CCR1, CCR3, CXCR3, CXCR7, DRD2L, DRD2S, DRD4, HTR1E, OPRK1, and SSTR1. […]

ADRA2A = ADRA2A (Homo sapiens, UniProt P08913); assay: PathHunter β-arrestin assay, antagonist mode; format: cell-based
Method: The assay was performed by DiscoverX Corporation (Fremont, CA) using PathHunter β -arrestin enzyme fragment complementation (EFC) technology, in a similar way to that described elsewhere [35, 36]. The PathHunter cell lines were taken from freezer stocks according to standard procedures. A total of 20 µL of cells were seeded into white 384-well plates and incubated at 37 °C for the appropriate time prior to testing.

CCR1 = target: T2, CCR1 (Homo sapiens, UniProt P32246); assay: PathHunter β-arrestin assay, agonist mode; format: cell-based
T2 sequence (P32246 1-355): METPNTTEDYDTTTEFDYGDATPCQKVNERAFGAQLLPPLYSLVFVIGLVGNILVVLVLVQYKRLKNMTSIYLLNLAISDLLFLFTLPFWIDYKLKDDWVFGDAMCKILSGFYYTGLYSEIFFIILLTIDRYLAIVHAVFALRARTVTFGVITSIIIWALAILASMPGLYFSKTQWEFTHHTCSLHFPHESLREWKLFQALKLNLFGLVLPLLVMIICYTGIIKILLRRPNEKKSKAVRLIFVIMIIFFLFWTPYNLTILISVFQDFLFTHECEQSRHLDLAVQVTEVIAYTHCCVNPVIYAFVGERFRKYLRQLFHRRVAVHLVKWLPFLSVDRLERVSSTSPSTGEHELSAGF
Method: as §1
(§2) For agonist determination, aaptamine was incubated with PathHunter cell lines to induce a response. To increase the concentration, intermediate dilution from 20 µM of aaptamine was performed to generate a 5X sample in an assay buffer. Then, 5 µL of 5X sample was added to the plate with PathHunter cells and incubated for 90 or 180 min at 37 °C or room temperature. The percentage activity of aaptamine was calculated following this formula: % activity = 100% × (mean RLU of test sample − mean RLU of vehicle control)/(mean MAX control ligand − mean RLU of vehicle control).
Hit validation was performed by subjecting the aaptamine to an agonist, antagonist, and positive allosteric modulation (PAM) secondary screen utilizing thirteen GPCR biosensor assays (Arrestin) against the following targets: ADRA2A, ADRA2C, ADRB2, CCR1, CCR3, CXCR3, CXCR7, DRD2L, DRD2S, DRD4, HTR1E, OPRK1, and SSTR1. The assays were performed at 10-point concentrations using three-fold serial dilutions in duplicate. For all the assay formats, the final assay vehicle concentration was 1%.

SSTR1 = SSTR1 (Homo sapiens, UniProt P30872); assay: PathHunter β-arrestin assay, positive allosteric modulation (PAM) mode; format: cell-based; details: dose-response, control agonist at EC20
Method: (§3) For PAM assays, the cells were preincubated with the sample followed by agonist induction at the EC20 concentration. To the cells, 5 µL of 5X sample was added and incubated for 30 min at 37 °C or room temperature. Following the incubation period, 5 µL of the 6X EC20 agonist prepared in an assay buffer was added to the cells and incubated for 90 or 180 min at 37 °C or room temperature.

[2] = target: mu opioid receptor (μ-OR); design: method as in PMID 27744679; details: read-out: EC50 agonist, mu opioid receptor; cited from earlier work
HTR1E = HTR1E (Homo sapiens, UniProt P28566); assay: PathHunter β-arrestin assay, positive allosteric modulation (PAM) mode; format: cell-based; details: dose-response, control agonist at EC20
Method: as §3

[3] = target: opioid receptor delta 1 (OPRD1) (Homo sapiens, UniProt P41143); assay: PathHunter β-arrestin assay, agonist mode; format: cell-based; details: 20 µM primary screen
Method: as §1, §2

[4] = dose-response analysis, read-out: Dose-Response Maximal Response, % Inhibition

Chain of SSTR1 (P30872 whole entry): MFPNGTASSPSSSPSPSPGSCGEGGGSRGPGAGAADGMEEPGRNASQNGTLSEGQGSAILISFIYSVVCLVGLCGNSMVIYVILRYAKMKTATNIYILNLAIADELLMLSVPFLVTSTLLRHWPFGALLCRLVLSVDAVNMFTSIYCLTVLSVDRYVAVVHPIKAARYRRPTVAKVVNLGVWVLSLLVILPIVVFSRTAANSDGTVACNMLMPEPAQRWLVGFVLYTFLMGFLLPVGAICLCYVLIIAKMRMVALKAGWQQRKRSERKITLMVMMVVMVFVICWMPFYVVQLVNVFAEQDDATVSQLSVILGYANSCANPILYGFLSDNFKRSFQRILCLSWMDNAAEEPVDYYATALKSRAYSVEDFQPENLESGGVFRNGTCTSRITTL
Chain of ADRA2A (P08913 whole entry): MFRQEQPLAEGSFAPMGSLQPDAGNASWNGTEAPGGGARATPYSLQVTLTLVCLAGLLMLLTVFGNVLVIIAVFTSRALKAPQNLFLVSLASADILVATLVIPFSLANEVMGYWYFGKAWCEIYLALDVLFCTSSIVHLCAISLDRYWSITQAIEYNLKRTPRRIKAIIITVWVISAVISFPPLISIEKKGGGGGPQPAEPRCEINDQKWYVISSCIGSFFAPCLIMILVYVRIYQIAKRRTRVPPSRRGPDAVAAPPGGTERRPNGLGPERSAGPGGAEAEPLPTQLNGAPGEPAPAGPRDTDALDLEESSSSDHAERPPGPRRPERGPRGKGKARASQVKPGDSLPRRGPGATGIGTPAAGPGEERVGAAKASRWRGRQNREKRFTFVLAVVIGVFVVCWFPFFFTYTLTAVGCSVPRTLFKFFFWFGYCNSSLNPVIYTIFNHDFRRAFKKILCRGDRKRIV
Chain of DRD2S (P14416 1-414 isoform P14416-2): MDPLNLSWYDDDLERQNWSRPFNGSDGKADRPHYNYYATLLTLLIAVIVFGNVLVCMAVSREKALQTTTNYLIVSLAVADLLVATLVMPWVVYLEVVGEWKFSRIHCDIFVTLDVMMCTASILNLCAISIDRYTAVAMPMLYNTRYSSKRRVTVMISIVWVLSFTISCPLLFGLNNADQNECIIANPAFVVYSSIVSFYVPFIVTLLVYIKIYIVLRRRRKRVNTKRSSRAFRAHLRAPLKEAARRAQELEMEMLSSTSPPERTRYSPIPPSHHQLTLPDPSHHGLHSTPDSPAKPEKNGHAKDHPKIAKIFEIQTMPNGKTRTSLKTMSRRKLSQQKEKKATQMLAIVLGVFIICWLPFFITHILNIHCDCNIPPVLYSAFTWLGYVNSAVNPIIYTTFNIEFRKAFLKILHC
Chain of HTR1E (P28566 whole entry): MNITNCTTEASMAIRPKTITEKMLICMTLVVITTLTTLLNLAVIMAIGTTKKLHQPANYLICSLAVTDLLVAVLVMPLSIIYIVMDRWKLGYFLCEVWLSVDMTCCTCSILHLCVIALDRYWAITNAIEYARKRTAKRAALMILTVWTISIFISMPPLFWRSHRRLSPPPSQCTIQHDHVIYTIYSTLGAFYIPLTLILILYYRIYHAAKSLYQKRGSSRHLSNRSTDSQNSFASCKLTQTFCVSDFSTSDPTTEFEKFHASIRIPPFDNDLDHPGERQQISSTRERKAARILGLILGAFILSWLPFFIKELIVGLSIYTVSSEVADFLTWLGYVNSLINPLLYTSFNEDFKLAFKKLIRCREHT
Chain of opioid receptor delta 1 (OPRD1) (P41143 whole entry): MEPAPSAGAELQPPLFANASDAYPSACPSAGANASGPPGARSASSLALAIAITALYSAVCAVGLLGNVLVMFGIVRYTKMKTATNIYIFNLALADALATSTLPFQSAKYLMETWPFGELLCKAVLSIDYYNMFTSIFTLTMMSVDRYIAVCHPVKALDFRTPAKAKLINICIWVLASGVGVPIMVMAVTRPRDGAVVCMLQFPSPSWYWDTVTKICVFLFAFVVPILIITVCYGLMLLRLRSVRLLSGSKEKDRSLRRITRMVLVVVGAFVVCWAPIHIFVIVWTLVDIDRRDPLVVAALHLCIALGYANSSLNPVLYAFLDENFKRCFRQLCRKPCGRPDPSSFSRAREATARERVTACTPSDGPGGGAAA

Structure (SMILES): COc1cc2ccnc3c2c(c1OC)NC=C3 [aaptamine]
- inhibition at 50 µM ([1]; 50 µM, 10 min preincubation, read-out: inhibition of enzyme activity (chymotrypsin-like)): 41%
- pIC50 ([1]; read-out: IC50 proteasome inhibition in vitro): ~4.30
- concentrations that increased the expression of p21 (p21): 20 to 50 µM
- effective concentration, α-adrenoreceptor antagonism (α-adrenoreceptor): 30 µM
- Emax (DRD2S; [4]): 74.4%
- pIC50 (DRD2S; dose-response, antagonist mode): 4.59
- Emax (ADRA2A; [4]): 63.4%
- pIC50 (ADRA2A; dose-response, antagonist mode): 4.25
- Emax (CCR1; dose-response analysis, read-out: Dose-Response Maximal Response, % Activation): 50.2%
- pEC50 (CCR1; dose-response, agonist mode): 4.93
- validation of potentiator hit under PAM conditions (SSTR1): false positives; also recorded: did not validate
- pEC50 [2]: 5.00
- validation of potentiator hit under PAM conditions (HTR1E): false positives; also recorded: did not validate
- agonistic activity in the β-arrestin assay [3]: did not demonstrate significant agonistic activity
